# Key:
# [1] = biological target: T1, recombinant mouse PGR-2 protein (Mus musculus, UniProt Q8VDQ1); experiment: Substrate specificity of PGR-2 (NADPH consumption, absorbance at 490 nm); type: biochemical; conditions: 10 μg recombinant mouse PGR-2, 0.5 mM NADPH, substrate replacing 15-keto PGE2, 37° C., 10 minutes
# T1 construct: The coding region of PGR-2 open reading frame was then subcloned to the expression vector pCMV-Tag2B; GST (N); made in house; host or cells: E. coli (pGEX-4T-3 vector)
# T1 sequence (Q8VDQ1 whole entry): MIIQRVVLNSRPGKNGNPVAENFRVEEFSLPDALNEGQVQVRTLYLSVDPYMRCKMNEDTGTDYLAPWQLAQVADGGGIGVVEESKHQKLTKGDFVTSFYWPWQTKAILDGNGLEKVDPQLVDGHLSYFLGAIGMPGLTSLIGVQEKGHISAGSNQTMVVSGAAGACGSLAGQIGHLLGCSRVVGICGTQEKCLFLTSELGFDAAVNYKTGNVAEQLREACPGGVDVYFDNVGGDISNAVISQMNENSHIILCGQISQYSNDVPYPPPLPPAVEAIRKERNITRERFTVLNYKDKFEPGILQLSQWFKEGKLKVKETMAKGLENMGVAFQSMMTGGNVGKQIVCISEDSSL
# Experimental: (§1) Mouse PGR-2 was recombinantly expressed in E.coli as a GST fusion protein following standard procedures. The recombinant PGR-2 protein thus obtained was used to determine substrate specificity and enzymatic kinetics.
# (§2) Enzymatic activity was determined as follows. 10 μg of the recombinant mouse PGR-2 protein was incubated at 37° C. in a reaction buffer containing 0.1M Tris-HCl (pH7.4), 0.5 mM NADPH, and 0.57 mM 15-keto PGE2. The reaction was conducted at 37° C. in the dark for 10 minutes and terminated by adding 700 μl of a buffer which contained 50 mM potassium hydrogen phthalate, pH 3.0, and 1% Tween 20. 200 μl of a color development reagent, which contained 790 μM indonitrotetrazolium chloride, 60 μM phenazene methosulfate, and 1% Tween 20, was added to oxidize any unreacted NADPH. Absorbance at 490 nm was measured by an ELISA plate reader. A standard curve was generated using reaction buffers containing serially diluted amounts of NADPH.
# Substrate specificity of PGR-2 was determined using the just-described procedure, except that 15-keto PGE2 was replaced with each of six prostaglandin substrates, each of three downstream metabolites, or leukotriene B4.
# PPAR-alpha = biological target: T2, PPAR-alpha (Homo sapiens, UniProt Q07869); experiment: Luciferase reporter with PPAR-alpha ligand-binding domain fused to yeast GAL4 DNA-binding domain in 3T3-L1 cells; type: cell-based; conditions: compared with PPAR-gamma
# T2 construct: expressed in transfected cells; host or cells: 3T3-L1 cells
# T2 sequence (Q07869 239-466 limits assumed): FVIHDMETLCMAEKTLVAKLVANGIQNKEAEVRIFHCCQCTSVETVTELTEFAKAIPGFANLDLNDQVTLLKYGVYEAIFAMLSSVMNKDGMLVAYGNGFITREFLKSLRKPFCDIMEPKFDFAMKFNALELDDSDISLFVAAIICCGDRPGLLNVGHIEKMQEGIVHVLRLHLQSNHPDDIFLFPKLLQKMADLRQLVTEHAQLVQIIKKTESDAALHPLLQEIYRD
# From the text: (§3) A luciferase reporter gene was transfected to 3T3-L1 cells together with the ligand-binding domain of PPAR-alpha, PPAR-gamma or PPAR-delta fused to a yeast GAL4 DNA-binding domain.
# endogenous PPAR = experiment: Reporter gene assay of endogenous PPAR activity in differentiating 3T3-L1 cells; type: cell-based, mouse; conditions: 3T3-L1 cells induced to differentiate for two days, transfected with a reporter gene
# Experimental: (§4) The effect of prostaglandin on PPAR-gamma activity in adipocytes was investigated. After treatment with a medium that induces cell differentiation, 3T3-L1 cells were treated from day 2 to 4 during adipogenesis with 14 μM 15-keto PGE2, 13,14-dihydro-15-keto PGE2 , 15-keto PGF2α, 13,14-dihydro-15-keto PGF2α, or 4.5 μm of BRL49653, a PPAR-gamma agonist. See Forman et al., Cell (1995) 83:803-812. At day 6, aggregates of lipid droplets were stained with oil-red O for observation. […] After being induced to differentiate for two days, the 3T3-L1 cells were transfected with a reporter gene.
# PPAR-gamma = experiment: Luciferase reporter with PPAR-gamma ligand-binding domain fused to yeast GAL4 DNA-binding domain in 3T3-L1 cells; type: cell-based
# From the text: as §3
# 3T3-L1 cells [2] = experiment: Adipogenesis in 3T3-L1 cells, lipid droplets stained with oil-red O; type: cell-based, mouse; conditions: 14 μM, treated day 2 to 4 during adipogenesis, stained at day 6
# Experimental: as §4
# 3T3-L1 cells [3] = experiment: Protein expression of adipogenesis-specific, PPAR-gamma target genes in 3T3-L1 cells; type: cell-based, mouse; conditions: for IRS-1 protein expression: 3T3-L1 cells
# From the text: Also examined was the ability of 15-keto PGE2 to induce protein expression of adipogenesis-specific, PPAR-gamma target genes, i.e., IRS-1 and -2.
# [4] = biological target: T1, recombinant mouse PGR-2 protein; experiment: Kinetics studies of PGR-2 catalyzed conversion; type: biochemical; conditions: order: 15-keto PGE2, then 15-keto PGF1α, 15-keto PGE1, 15-keto PGF2α
# Experimental: as §1, §2
# Unlike PGR/LTB4DH, PGR-2 used NADPH as a cofactor much more efficiently than NADH.
Compound,specific activity with PGR-2 (substrate specificity) [1],endogenous PPAR activity (reporter gene) (endogenous PPAR),further results
CCCCC[C@H](O)/C=C/[C@@H]1[C@@H](C/C=C\CCCC(=O)O)[C@@H](O)C[C@@H]1O [11b-PGF2α],no specific activity was detected,–,–
CCCCC[C@H](O)/C=C/[C@@H]1[C@@H](C/C=C\CCCC(=O)O)[C@H](O)C[C@H]1O [PGF2β],no specific activity was detected,–,–
"CCCCCC(=O)CCC1C(=O)CC(O)C1C/C=C\CCCC(=O)O (stereo not shown) [13,14-dihydro-15-keto PGD2]",no specific activity was detected,–,–
CCCCCC(=O)/C=C/[C@H]1[C@H](O)CC(=O)[C@@H]1C/C=C\CCCC(=O)O [15-keto PGE2],–,enhanced endogenous PPAR activity significantly,"adipogenesis (aggregates of lipid droplets, oil-red O) (3T3-L1 cells [2]): effectively enhanced adipogenesis at a level similar to BRL49653; activation of PPAR-alpha (GAL4 fusion, luciferase reporter) (PPAR-alpha): to a lesser degree; activation of PPAR-gamma (GAL4 fusion, luciferase reporter) (PPAR-gamma): activated; IRS-1 protein expression (3T3-L1 cells [3]): did not increase; PPAR-gamma1 and PPAR-gamma2 protein expression (3T3-L1 cells [3]; added with MIX, insulin and dexamethasone): significantly enhanced; expression of aP2, an adipocyte-specific marker (3T3-L1 cells [3]; even in the absence of MIX): strongly induced; IRS-2 expression (3T3-L1 cells [3]; in the presence of insulin and dexamethasone): enhanced the expression to a level similar to MIX; efficiency of PGR-2 catalyzed conversion (rank order) [4]: most efficiently"
"CC(C)Cn1c(=O)n(C)c(=O)c2[nH]cnc21 [MIX, methylisobutylxanthine]",–,–,IRS-1 protein expression (3T3-L1 cells [3]): induced IRS-1 expression
"CCCCCC(=O)CC[C@@H]1[C@@H](C/C=C\CCCC(=O)O)[C@@H](O)C[C@H]1O [13,14-dihydro-15-keto PGF2α]",no specific activity was detected,failed to increase PPAR activity,–
CCCCC/C=C\C[C@@H](O)/C=C/C=C/C=C\[C@@H](O)CCCC(=O)O [leukotriene B4],no specific activity was detected,–,–
"CCCCCC(=O)CC[C@H]1[C@H](O)CC(=O)[C@@H]1C/C=C\CCCC(=O)O [13,14-dihydro-15-keto PGE2]",no specific activity was detected,failed to increase PPAR activity,–

# Further lines, with some results ahead:
specific activity with PGR-2 (substrate specificity) [1],Compound,endogenous PPAR activity (reporter gene) (endogenous PPAR),further results
reacted specifically with PGR-2,CCCCCC(=O)/C=C/[C@@H]1[C@@H](CCCCCCC(=O)O)[C@@H](O)C[C@H]1O [15-keto PGF1α],–,–
reacted specifically with PGR-2,CCCCCC(=O)/C=C/[C@H]1[C@H](O)CC(=O)[C@@H]1CCCCCCC(=O)O [15-keto PGE1],–,–
reacted specifically with PGR-2,CCCCCC(=O)/C=C/[C@@H]1[C@@H](C/C=C\CCCC(=O)O)[C@@H](O)C[C@H]1O [15-keto PGF2α],enhanced endogenous PPAR activity significantly,"activation of PPAR-alpha (GAL4 fusion, luciferase reporter) (PPAR-alpha): to a lesser degree; activation of PPAR-gamma (GAL4 fusion, luciferase reporter) (PPAR-gamma): activated"
no specific activity was detected,CCCCC[C@H](O)/C=C/[C@@H]1[C@@H](CC(=O)CCCCC(=O)O)[C@@H](O)C[C@H]1O [6-keto PGF1α],–,–

# Reference: patent publication US20060003410A1, “Prostaglandin reductase” (priority 2004, published 2006)
